Measured values as given in patent publication US9695194B2, “Benzoxazinone derivatives for treatment of skin diseases” (SIXERA PHARMA AB, priority 2014, dated 2017).

Key:
[1] = target: Recombinant human KLK7 (Homo sapiens (Human), UniProt P49862); test: KLK7 assay; assay type: biochemical; conditions: substrate S-2586, 37° C., pH 7.2
[2] = target: Trypsin (Bos taurus (Bovine), UniProt P00760); test: Trypsin assay; assay type: biochemical, human; conditions: substrate S-2288, 37° C., pH 7.2
[3] = target: Chymotrypsin, bovine (Bos taurus (Bovine), UniProt P00766); test: Chymotrypsin assay; assay type: biochemical; conditions: substrate S-2586, 37° C., pH 7.2
Procedure: Materials: Chymotrypsin, bovine, 25 μg (Roche, sequence grade), Substrate S-2586 (Chromogenics, cat. no. 82 08 94)

[4] = target: Cathepsin G (Homo sapiens (Human), UniProt P08311); test: Cathepsin G assay
Cathepsin G, sequence (P08311 21-255): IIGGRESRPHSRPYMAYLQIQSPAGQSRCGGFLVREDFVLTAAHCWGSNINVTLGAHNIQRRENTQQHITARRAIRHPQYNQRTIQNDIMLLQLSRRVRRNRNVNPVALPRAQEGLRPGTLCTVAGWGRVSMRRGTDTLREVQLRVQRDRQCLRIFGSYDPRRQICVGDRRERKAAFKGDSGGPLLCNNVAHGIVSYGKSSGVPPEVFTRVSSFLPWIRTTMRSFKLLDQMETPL
Procedure: (§1) IC50 values for a number of substituted 3,1-benzoxazin-4-ones on a panel of human proteases were determined.

[5] = target: Recombinant human KLK5 (Homo sapiens (Human), UniProt Q9Y337); test: KLK5 assay
Recombinant human KLK5, sequence (Q9Y337 23-293): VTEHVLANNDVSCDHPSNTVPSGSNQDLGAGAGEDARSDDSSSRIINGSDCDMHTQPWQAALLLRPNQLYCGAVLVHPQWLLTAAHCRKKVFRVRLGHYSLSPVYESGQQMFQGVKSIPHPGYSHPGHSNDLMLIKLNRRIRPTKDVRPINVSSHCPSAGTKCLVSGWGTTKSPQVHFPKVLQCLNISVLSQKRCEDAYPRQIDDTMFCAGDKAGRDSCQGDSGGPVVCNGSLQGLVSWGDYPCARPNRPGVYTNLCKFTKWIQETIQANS
Procedure: as §1

Trypsin, sequence (P00760 24-246): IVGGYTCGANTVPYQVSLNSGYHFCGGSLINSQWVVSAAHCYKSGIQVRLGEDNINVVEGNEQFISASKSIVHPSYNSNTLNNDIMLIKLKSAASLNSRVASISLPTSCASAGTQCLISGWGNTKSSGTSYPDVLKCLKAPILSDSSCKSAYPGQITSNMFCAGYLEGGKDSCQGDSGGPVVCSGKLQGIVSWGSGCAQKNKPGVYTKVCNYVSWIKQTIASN
Recombinant human KLK7, sequence (P49862 30-253): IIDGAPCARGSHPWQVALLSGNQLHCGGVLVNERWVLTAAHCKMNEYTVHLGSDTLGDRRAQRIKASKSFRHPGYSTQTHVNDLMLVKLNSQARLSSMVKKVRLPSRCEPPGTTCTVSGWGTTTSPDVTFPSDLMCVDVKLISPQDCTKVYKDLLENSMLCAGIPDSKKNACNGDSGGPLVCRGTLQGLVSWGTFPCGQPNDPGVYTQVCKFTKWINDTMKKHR

Row | Compound | IC50 [1] [nM] | IC50 [2] [nM] | IC50 [3] [nM] | IC50 [4] [nM] | IC50 [5] [nM]
1 | CCOc1cc2c(=O)oc(-c3ccccc3SC)nc2cc1OC [Compound 1, 6-ethoxy-7-methoxy-2-(2-methylsulfanylphenyl)-3,1-benzoxazin-4-one] | 48 | > 10000 | > 10000 | > 10000 | –
2 | CCOc1cc2c(=O)oc(-c3ccccc3Cl)nc2cc1OC [Compound 2, 2-(2-chlorophenyl)-6-ethoxy-7-methoxy-3,1-benzoxazin-4-one] | 73 | > 10000 | > 10000 | > 10000 | –
3 | CCOc1cc2c(=O)oc(-c3ccc(OC)cc3OC)nc2cc1OC [Compound 3] | 116 | > 10000 | > 10000 | 1100 | –
4 | CCOc1cc2c(=O)oc(-c3ccccc3S(C)(=O)=O)nc2cc1OC [Compound 4] | 230 | > 10000 | > 10000 | 2800 | –
5 | CCOc1cc2c(=O)oc(-c3ccccc3OC)nc2cc1OC [Compound 5] | 85 | > 10000 | > 10000 | 1200 | –
6 | COc1ccccc1-c1nc2cc3c(cc2c(=O)o1)OCCCO3 [Compound 6] | 80 | > 10000 | < 100 | – | –
7 | O=c1oc(-c2ccccc2Cl)nc2cc3c(cc12)OCCCO3 [Compound 7] | 90 | > 10000 | < 100 | 1900 | –
8 | COc1ccc(-c2nc3cc4c(cc3c(=O)o2)OCCCO4)c(OC)c1 [Compound 8] | 65 | > 10000 | < 100 | – | –
9 | CSc1ccccc1-c1nc2cc3c(cc2c(=O)o1)OCCCO3 [Compound 9] | 228 | > 10000 | – | 1300 | –
10 | CS(=O)(=O)c1ccccc1-c1nc2cc3c(cc2c(=O)o1)OCCCO3 [Compound 10] | 188 | > 10000 | 200 | – | –
11 | CC(C)c1ccc(-c2nc3cc4c(cc3c(=O)o2)OCCCO4)c(C(C)C)c1 [Compound 11] | 1370 | > 10000 | 1000 | > 10000 | –
12 | COc1cc2nc(-c3ccccc3SC)oc(=O)c2cc1OC [Compound 12] | 147 | > 10000 | – | – | –
13 | COc1ccccc1-c1nc2cc3c(cc2c(=O)o1)OCCO3 [Compound 13] | 155 | 1800 | < 100 | – | –
14 | CS(=O)(=O)c1ccccc1-c1nc2cc3c(cc2c(=O)o1)OCCO3 [Compound 14] | 183 | 1800 | < 100 | – | 600
15 | COC1=CC=C(c2nc3cc4c(cc3c(=O)o2)OCCO4)C(OC)C1 (stereo not drawn) [Compound 15] | 105 | 3700 | < 100 | – | –
16 | O=c1oc(-c2ccccc2Cl)nc2cc3c(cc12)OCCO3 [Compound 16] | 149 | 3700 | < 100 | – | –
17 | COc1ccc(-c2nc3cc(OC)c(OC)cc3c(=O)o2)c(OC)c1 [Compound 17] | 175 | > 10000 | 1200 | 100 | 1000
18 | COc1cc2nc(-c3ccccc3I)oc(=O)c2cc1OC [Compound 18] | – | > 10000 | > 10000 | 1900 | –
